# Measured values published in patent US8609835B2, “Polysaccharide composition and methods of isolation of the emulsion stabilizing cationic polyelectrolytic polysaccharide” (Trustees Of Tufts College, priority 2008, dated 2013).
# Test: Aqueous solubility (statements)
substance,measurement,value
Acinetobacter polyelectrolyte exopolysaccharide [APE],solubility in aqueous solutions versus pH,soluble throughout the pH range
